In publication PMC7358525, “Characterization of PF-6142, a Novel, Non-Catecholamine Dopamine Receptor D1 Agonist, in Murine and Nonhuman Primate Models of Dopaminergic Activation” (Frontiers in Pharmacology, 2020):

How the values were obtained:
Type in all cases: in vivo
[1] = tested on: MK-801-disrupted paired-pulse facilitation; test: Paired-pulse facilitation (PPF), CA1/subiculum to mPFC, urethane-anesthetized rat
Method: (§1) Experiments were performed on n=10 adult male Sprague-Dawley rats (275–305 g) under urethane anesthesia (1.5 g/kg, i.p.). The femoral vein was cannulated for i.v. administration of drugs. A stimulation electrode was placed in the CA1/subiculum region (coordinates: A-P = +6.3 mm, M–L = +5.2 mm, D-V = +8.0 mm) using stereotactic methods and unilateral local field potential (LFP) was recorded by a metal monopolar macroelectrode placed into the medial PFC (mPFC; coordinates: A-P = +3.0 mm, M-L = +0.6 mm, D-V = +5.0 mm). […] Evoked responses to the first and the second stimuli were identified (P1 and P2, respectively) and the amount of PPF determined by the formula: (P2 amplitude/P1 amplitude). Waveform averages used to calculate PPF consisted of 60 consecutive stimuli. Five minutes were allowed between administration of each drug dose and the starting of the subsequent average of each 10-min period after each cumulative dose (0.1–1 mg/kg, IV). Disruption in power of LFP delta activity was measured as the percentage of power in low frequency (0–1.8 Hz) irregular activity in the total (0–4 Hz) delta power range. LFP power spectra were determined during periods concurrent with waveform averages and PPF calculation. Statistical significance was determined by means of two-tailed paired Student’s t-test.

[2] = tested on: mPFC low frequency delta activity; test: mPFC low frequency delta field potential oscillation power, anesthetized rat
Method: as §1

mouse locomotor activity = test: Mouse locomotor activity (LMA)
Method: Locomotor activity data were measured by an automated infrared photo-beam system in sound attenuating chambers controlled by Versamax® software, provided by Accuscan Instruments Inc. (Columbus, Ohio), which quantified beam breaks similar to the methods used previously ([Xu et al., 2000]). To test D1 receptor selectivity in a pharmacologic model, C57BL/6J mice were habituated to the apparatus for 90 min, followed by pretreatment with vehicle or SCH-23390 (0.01, 0.032, 0.1 0.32, s.c.) and returned to the apparatus for 30 min. […] Data were compared against the vehicle group using a repeated measures one-way ANOVA with a Dunnett’s post-test. To test D1 receptor selectivity in a genetic model, DRD1a WT and knockout mice (D1 KO) were habituated to the apparatus for 90 min, pretreated with vehicle or SCH-23390 (0.032 mg/kg, s.c.) and returned to the apparatus for 30 min. […] Data were compared within genotype using a two-way ANOVA with a Dunnett’s post-hoc test versus vehicle treated group.

[3] = tested on: acetylcholine levels in the PFC of WT and D1 KO mice; test: Prefrontal cortex acetylcholine levels via microdialysis, WT and D1 KO mouse; conditions: SCH-23390 0.32 mg/kg SC, mice
Source text: Adult male Sprague-Dawley rats (280–360 g) were obtained from Charles-River Laboratories, Raleigh, NC and male C57BL/6J DRD1a WT and D1 DA receptor knockout mice (DRD1a-905781) were obtained from The Jackson Laboratories (Bar Harbor, ME). Animals were housed on a 12-h light/dark cycle with free access to food and water and allowed to acclimate for at least 5 d after arrival. Aseptic technique was used during the surgical procedure in order to prevent infection. On the day of the procedure animals were anesthetized with isoflurane (4%) and their heads shaved. The animals were then placed into a Kopf stereotaxic frame, the surgical area disinfected by swabbing with Provodine solution, and the area isolated with a sterile surgical drape. Anesthesia was maintained with isoflurane (2.5%–3%) delivered through a nose cone using a Univentor 400 anesthesia unit. Animals were given a 0.1 ml subcutaneous (s.c.) injection of Metacam (NSAID, meloxicam, 5 mg/ml, Boehringer Ingelheim) as a post-operative analgesic. Marcaine (bupivacaine, 0.5%, Hospira, Lake Forest, IL), a long acting local anesthetic, was administered s.c. at the surgical area to minimize pain and discomfort.
A 1.5–2 cm incision was made along the midline of the skull, beginning from a point just behind the eyes and running posterior. The skin was retracted with hemostats and the skull was further exposed using blunt dissection with cotton swabs. Bleeding capillaries were cauterized, and the skull dried with a sterile gauze sponge.
A microdialysis guide cannula [Bioanalytical Systems Inc (BAS), West Lafayette, IN, part # MD-2251] was placed into a guide holder on the stereotaxic frame and positioned over “Bregma”. The guide cannula was positioned over the PFC (A-P, +3.2 mm; M-L, +0.7 mm, left, relative to bregma) and the location marked on the skull. Using a 0.7 mm burr, a hole was made in the skull at the cannula position. […]
For conventional analysis, ACh was analyzed by high performance liquid chromatography (HPLC) utilizing a modification of the BAS ACh-choline assay kit (BAS part # MF-8910). […]

[4] = tested on: conditioned avoidance responding; test: Rat conditioned avoidance response (CAR)
Method: The CAR assay was performed under similar conditions previously described ([Marquis et al., 2011]) at WuXiAppTec Inc. (Delin Rd. #90, Waigaoquiao Free Trade Zone, Shanghai 200131, China). For this study, adult male Fisher-344 rats were trained and tested in a two-way active avoidance apparatus with MED-PC software (MED Associates, St. Albans, VT, USA).
Briefly, subjects were handled and acclimated to the shuttle boxes for 2 d prior to training sessions. During training sessions, subjects were trained to avoid an electric footshock by moving to the adjacent, non-stimulus side of the shuttle box upon presentation of tone + light stimuli which preceded the presentation of the footshock (0.6 mA, 10 s duration) by 10 s. For this assay an avoidance was defined as moving to the adjacent compartment during the tone+light presentation that preceded the shock, an escape was defined as moving to the adjacent compartment upon presentation of the shock, and an escape failure was defined as a lack of relocation to the adjacent compartment throughout the presentation of the shock. Subjects received 30 trials of training per day for 5 d. Subjects with ≥ 80% avoidance responses on two consecutive days with no escape failures, were considered qualified for testing, and were randomized across treatment groups (n=8–9 per treatment group). […] Avoidance responding was calculated as % of the number of total trials in which an avoidance occurred. Data were calculated for each animal and compared across treatment groups using one-way ANOVA with Dunnett’s post-test versus the vehicle + vehicle treated group.

[5] = tested on: prepulse inhibition of startle; test: Mouse prepulse inhibition (PPI) and acoustic startle; conditions: risperidone 0.56 mg/kg s.c., C57BL/6J mice
Method: Drug and behaviorally naïve adult male C57BL/6J mice (9–11 weeks of age; n=8 per dose group) were used for PPI experiments. Subjects were tested individually in SR-Lab acoustic startle chambers (San Diego Instruments, San Diego CA, USA) equipped with a restrainer mounted atop a piezoelectric accelerometer which measured transduced movement in response to the presentation of audio stimuli presented through a speaker mounted 20 cm above the animal. Subjects were acclimated to an anteroom adjacent to the testing room at minimum 60 min prior to testing. Test sessions began with a 5 min acclimation period to background noise (65 dB) followed by presentation of six randomized repetitions of the 120 dB startle stimulus (40 ms duration) presented alone or paired in combination with a pre-pulse stimulus of 68, 72, or 74 db (20 msec in duration) presented 80 msec prior to the 120 dB startle stimulus, which was equivalent to +3, +7, and +9 db over background noise, respectively. Data were also recorded for no stimulus values to evaluate background level of response. The inter-trial interval between stimulus presentations was randomized and ranged from 10 to 20 s. Test compounds were administered 30 min (s.c.) prior to testing. […] Percent PPI was calculated for each individual subject as the relative change in the 120 dB startle response in the presence of each prepulse intensity using the formula: 100-((prepulse-pulse)/pulse)*100 as previously described ([Ralph-Williams et al., 2003]).
The experiment was analyzed using a two-way mixed model ANOVA (lme4 library in R software). The model included prepulse stimulus intensity levels, treatment (as all combinations of pre-treatment and treatment), and their interaction as fixed factors and random intercept, random slope for each animal as random factors. […] In order to adjust for multiple hypothesis testing we used false discover rate method which controls the expected proportion of false discoveries among the rejected hypotheses. For all statistical tests, p < 0.05 between groups was considered significant.

C[C@]12N[C@H](Cc3ccccc31)c1ccccc12 [MK-801]
increase of P1 response amplitude ([1]; MK-801 0.1 mg/kg IV): 44% | increase of P2 response amplitude ([1]; MK-801 0.1 mg/kg IV): 10% | PPF ([1]; MK-801 0.1 mg/kg IV (p=0.04)): significant decrease | low frequency (0-1.8 Hz) irregular delta activity ([2]; MK-801 0.1 mg/kg IV (p=0.01)): significant increase

NC[C@@H]1O[C@H](C23CC4CC(CC(C4)C2)C3)Cc2c1ccc(O)c2O [A-77636, reference compound]
locomotor activity, five consecutive days of dosing (mouse locomotor activity; 3.2 mg/kg s.c. daily, CD-1 mice): increased locomotor activity

CN1CCc2cc(Cl)c(O)cc2[C@@H](c2ccccc2)C1 [SCH-23390, reference compound]
baseline P1 and P2 response amplitudes ([1]; SCH-23390 0.32 mg/kg IV): no effect | control PPF ([1]; SCH-23390 0.32 mg/kg IV (p=0.06)): no impact | effect on PF-6142 (1-3 mg/kg IV) reversal of MK-801 effects on PPF ([1]; SCH-23390 0.32 mg/kg IV pretreatment): block | effect on PF-6142-increased activity in WT mice (mouse locomotor activity; SCH-23390 0.032 mg/kg s.c. pretreatment): attenuated | effect on PF-6142 (10 mg/kg s.c.)-stimulated activity (mouse locomotor activity; SCH-23390 pretreatment 0.01, 0.032, 0.1, 0.32 mg/kg s.c.): blocked | effect on PF-6142-induced increase in PFC ACh level [3]: attenuated | mPFC low frequency delta activity ([2]; SCH-23390 0.32 mg/kg IV alone (p=0.19)): no significant effect

Cc1nc2n(c(=O)c1CCN1CCC(c3noc4cc(F)ccc34)CC1)CCCC2 [risperidone, reference compound]
mean % avoidance responses ([4]; risperidone 0.1 mg/kg s.c.): 83.33% | mean % avoidance responses ([4]; risperidone 0.56 mg/kg s.c. (p<0.001)): 6.875% | %PPI [5]: produced an increase in %PPI
